The source of these data is article PMC5481569, “A Bacteroidetes locus dedicated to fungal 1,6-β-glucan degradation: Unique substrate conformation drives specificity of the key endo-1,6-β-glucanase” (The Journal of Biological Chemistry, 2017).

The target of one test is T1, BT3313 (Bacteroides thetaiotaomicron, UniProt Q8A2J2).
T1 construct: gene BT_3313; signal peptide (lipoprotein) removed; N-terminal hexahistidine tag; pET28 derivative, E. coli
T1 sequence (Q8A2J2 20-667): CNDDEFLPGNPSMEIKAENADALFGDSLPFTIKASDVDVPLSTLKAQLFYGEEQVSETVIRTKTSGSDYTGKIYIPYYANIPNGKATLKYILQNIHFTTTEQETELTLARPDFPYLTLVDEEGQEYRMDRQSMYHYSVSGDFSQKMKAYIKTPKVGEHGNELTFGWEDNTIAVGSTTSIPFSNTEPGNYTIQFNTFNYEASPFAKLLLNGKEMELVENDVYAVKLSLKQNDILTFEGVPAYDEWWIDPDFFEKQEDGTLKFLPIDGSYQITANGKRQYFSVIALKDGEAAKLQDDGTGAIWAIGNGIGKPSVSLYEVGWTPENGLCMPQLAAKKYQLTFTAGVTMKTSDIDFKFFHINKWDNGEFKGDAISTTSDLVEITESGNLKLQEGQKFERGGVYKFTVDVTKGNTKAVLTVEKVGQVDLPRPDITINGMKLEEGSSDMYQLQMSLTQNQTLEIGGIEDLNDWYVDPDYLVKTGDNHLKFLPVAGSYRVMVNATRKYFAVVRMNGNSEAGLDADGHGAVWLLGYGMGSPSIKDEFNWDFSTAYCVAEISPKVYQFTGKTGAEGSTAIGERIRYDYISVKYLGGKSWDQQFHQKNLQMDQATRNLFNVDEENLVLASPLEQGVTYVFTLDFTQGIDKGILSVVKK
The test is described as follows: isothermal titration calorimetry. It is filed as binding. The conditions noted are these: 50 mM Na-Hepes, pH 7.5, 25 °C. An excerpt:
isothermal titration calorimetry on BT3313
In general terms: Isothermal titration calorimetry measures the heat released or taken up as one component is titrated into another.

The target of a further test is T2, BT3311 (Bacteroides thetaiotaomicron, UniProt Q8A2J4).
T2 construct: gene BT_3311; signal peptide (lipoprotein) removed; N-terminal hexahistidine tag; pET28 derivative, E. coli
T2 sequence (Q8A2J4 22-506): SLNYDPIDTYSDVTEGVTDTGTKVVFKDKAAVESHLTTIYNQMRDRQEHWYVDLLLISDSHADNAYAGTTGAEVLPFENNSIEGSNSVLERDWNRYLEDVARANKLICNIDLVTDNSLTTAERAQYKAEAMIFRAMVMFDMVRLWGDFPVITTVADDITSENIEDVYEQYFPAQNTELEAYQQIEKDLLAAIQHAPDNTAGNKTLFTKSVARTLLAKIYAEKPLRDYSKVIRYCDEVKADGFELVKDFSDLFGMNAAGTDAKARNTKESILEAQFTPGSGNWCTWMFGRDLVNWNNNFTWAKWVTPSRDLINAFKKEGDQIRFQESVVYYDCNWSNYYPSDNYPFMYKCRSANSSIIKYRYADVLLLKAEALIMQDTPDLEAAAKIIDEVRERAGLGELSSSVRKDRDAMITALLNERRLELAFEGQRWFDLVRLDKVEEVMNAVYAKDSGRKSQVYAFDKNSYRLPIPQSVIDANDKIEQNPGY
The test is described as follows: isothermal titration calorimetry. It is filed as binding. The conditions noted are these: 50 mM Na-Hepes, pH 7.5, 25 °C. An excerpt:
isothermal titration calorimetry on BT3311

The target in the next test is T3, BT3312 (Bacteroides thetaiotaomicron, UniProt Q8A2J3).
T3 construct: gene BT_3312; signal peptide (lipoprotein) removed; N-terminal hexahistidine tag; pET28 derivative, E. coli Tuner; residues 82-427 form the TIM barrel domain
T3 sequence (Q8A2J3 22-496): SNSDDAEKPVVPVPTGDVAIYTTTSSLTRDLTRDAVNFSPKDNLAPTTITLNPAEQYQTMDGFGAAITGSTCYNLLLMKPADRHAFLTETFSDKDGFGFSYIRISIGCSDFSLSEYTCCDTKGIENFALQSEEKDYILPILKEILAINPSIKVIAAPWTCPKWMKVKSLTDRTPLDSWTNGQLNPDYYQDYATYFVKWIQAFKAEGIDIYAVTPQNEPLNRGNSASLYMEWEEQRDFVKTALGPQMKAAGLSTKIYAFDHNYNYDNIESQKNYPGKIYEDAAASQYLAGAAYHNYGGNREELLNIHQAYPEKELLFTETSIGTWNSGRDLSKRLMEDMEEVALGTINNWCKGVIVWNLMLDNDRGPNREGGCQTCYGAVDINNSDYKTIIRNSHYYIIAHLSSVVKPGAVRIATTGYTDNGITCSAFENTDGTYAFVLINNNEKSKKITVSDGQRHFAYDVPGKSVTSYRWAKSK
The experiment in a line: glucose release from […]-β-glucotriose (D-glucose detection kit); also crystal structure, […] Å. It is filed as biochemical.

Take `OC[C@H]1O[C@@H](OC[C@H]2O[C@@H](OC[C@H]3O[C@@H](OC[C@H]4O[C@@H](OC[C@H]5O[C@@H](OC[C@H]6O[C@@H](OC[C@H]7OC(O)[C@H](O)[C@@H](O)[C@@H]7O)[C@H](O)[C@@H](O)[C@@H]6O)[C@H](O)[C@@H](O)[C@@H]5O)[C@H](O)[C@@H](O)[C@@H]4O)[C@H](O)[C@@H](O)[C@@H]3O)[C@H](O)[C@@H](O)[C@@H]2O)[C@H](O)[C@@H](O)[C@@H]1O` (stereo partly drawn) [1,6-β-Glucoheptaose]: the Ka is reported as 1.5 × 10^4 ± 0.2 on BT3313 and 2.1 × 10^4 ± 0.1 on BT3311.

Turning to `OC[C@H]1O[C@@H](OC[C@H]2O[C@@H](OC[C@H]3O[C@@H](OC[C@H]4O[C@@H](OC[C@H]5O[C@@H](OC[C@H]6OC(O)[C@H](O)[C@@H](O)[C@@H]6O)[C@H](O)[C@@H](O)[C@@H]5O)[C@H](O)[C@@H](O)[C@@H]4O)[C@H](O)[C@@H](O)[C@@H]3O)[C@H](O)[C@@H](O)[C@@H]2O)[C@H](O)[C@@H](O)[C@@H]1O` (stereo partly drawn) [1,6-β-Glucohexaose], the figures for the Ka at BT3313 and at BT3311 were 8.0 × 10^3 ± 0.7 and 1.6 × 10^4 ± 0.1, respectively.

For `OC[C@H]1O[C@@H](OC[C@H]2O[C@@H](OC[C@H]3O[C@@H](OC[C@H]4O[C@@H](OC[C@H]5OC(O)[C@H](O)[C@@H](O)[C@@H]5O)[C@H](O)[C@@H](O)[C@@H]4O)[C@H](O)[C@@H](O)[C@@H]3O)[C@H](O)[C@@H](O)[C@@H]2O)[C@H](O)[C@@H](O)[C@@H]1O` (stereo partly drawn) [1,6-β-Glucopentaose], the Ka at BT3313 is recorded as 3.6 × 10^3 ± 0.2; on BT3311 it was 8.3 × 10^3 ± 0.3.

As usually defined, the Ki is the equilibrium dissociation constant of an inhibitor or competing ligand from its target. As to `OC[C@H]1O[C@@H](OC[C@H]2NC[C@H](O)[C@@H](O)[C@@H]2O)[C@H](O)[C@@H](O)[C@@H]1O` [compound 5, β-D-Glucopyranosyl-1,6-deoxynojirimycin], the Ki at BT3312 is ~1000 µM.
